Earlier results, collected in publication PMC3850926, “Evaluation of the adverse event profile and pharmacodynamics of toceranib phosphate administered to dogs with solid tumors at doses below the maximum tolerated dose” (BMC Veterinary Research, 2013).

Tests used:
[1] = tested on: human cancer patients; settings: cited from earlier work
[2] = tested on: VEGF; set-up: method as in PMID 19212818; settings: human patients; return to baseline during rest period; cited from earlier work

CCN(CC)CCNC(=O)c1c(C)[nH]c(/C=C2\C(=O)Nc3ccc(F)cc32)c1C [sunitinib]
incidence of PLN ([1]; human cancer patients): approximately 2.5%
hypertension classified as grade 3 ([1]; human patients with RCC): 8%
patients that developed hypertension ([1]; human patients with renal cell carcinoma (RCC)): 24%
circulating endothelial precursors and plasma VEGF during treatment [2]: increase over time during treatment
